This is an account of results in US20170022201A1, “MACROCYLIC PYRIDINE DERIVATIVES” (Janssen Pharmaceutica NV, priority 2014, published 2017).

Assay [1] concerns the target T1, eEF2K (Homo sapiens, UniProt O00418).
T1 construct: in the immortalized epithelial breast cell lines, MCF10A; host or cells: MCF10A immortalized breast epithelial cells
T1 sequence (O00418 1-725): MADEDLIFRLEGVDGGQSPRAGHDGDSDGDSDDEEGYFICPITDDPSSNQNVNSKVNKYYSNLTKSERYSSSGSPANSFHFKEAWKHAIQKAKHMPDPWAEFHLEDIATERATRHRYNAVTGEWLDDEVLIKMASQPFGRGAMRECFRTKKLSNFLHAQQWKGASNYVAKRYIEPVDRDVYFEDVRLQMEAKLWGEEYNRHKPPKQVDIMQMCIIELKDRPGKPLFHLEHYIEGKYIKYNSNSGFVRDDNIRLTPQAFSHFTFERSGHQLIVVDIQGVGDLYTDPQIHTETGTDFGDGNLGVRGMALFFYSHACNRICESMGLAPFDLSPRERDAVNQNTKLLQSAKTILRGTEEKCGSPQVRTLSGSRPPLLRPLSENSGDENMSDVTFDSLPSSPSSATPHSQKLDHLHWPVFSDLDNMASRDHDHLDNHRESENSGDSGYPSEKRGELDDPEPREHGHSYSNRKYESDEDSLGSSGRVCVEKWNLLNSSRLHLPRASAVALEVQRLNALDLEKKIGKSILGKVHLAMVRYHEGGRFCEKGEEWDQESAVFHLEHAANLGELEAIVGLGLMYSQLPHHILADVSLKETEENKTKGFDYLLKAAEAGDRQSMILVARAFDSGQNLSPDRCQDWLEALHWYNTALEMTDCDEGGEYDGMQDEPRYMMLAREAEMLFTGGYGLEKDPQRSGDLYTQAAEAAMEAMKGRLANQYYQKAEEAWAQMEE
The assay can be described thus: EF2K cell-based assay (P-EF2 AlphaLISA, 2-deoxyglucose stimulated MCF10A cells). Particulars: 2.5 mM 2-deoxyglucose 4 h, phosphorylation of EF2 at Thr 56, pIC50 = -log IC50 (M); for IC50: read-out: eEF2K_C_PThr56 pIC50 (converted). How it is done:
In this assay, 2.5 mM 2-deoxyglucose was used to deplete intracellular ATP and activate 5′ adenosine monophosphate-activated protein kinase (AMPK) in the immortalized epithelial breast cell lines, MCF10A. MCF 10A cells were purchased from ATCC (CRL-10317).
MCF10A cells are seeded at a density of 1.25×10^5 Cells/ml at 100 μl/well in a 96-well plate and incubated for 24 hours (37° C., 5% CO2). Compound is added for 1 hour, and cell are stimulated with 2.5 mM of 2-deoxy-glucose for 4 hours. Medium is then removed, and cells are lysed in an ice-cold buffer M-PER (Thermo Scientific, 78501), containing protease and phosphatase inhibitors. P-EF2 levels are determined in these lysates using the P-EF2 AlphaLISA described above.
(In Alpha technology, singlet oxygen from a donor bead excites a nearby acceptor bead.)

Assay [2] deals with PIK3C3 lipid kinase (Homo sapiens, UniProt Q8NEB9). The assay can be described thus: Biochemical Vps34 lipid kinase assay (ADP-Glo). The note with it: 20 μM ATP; for IC50: serial dilution 10 μM to 0.3 nM, pIC50 = -log IC50 (M); for remaining activity at 1 µM: 1 h, read-out: VPS34_1microM_%ofcntrl; for remaining activity at 1 µM / VPS34_1microM_%ofcntrl: single dose 1 μM, residual activity compared to control (DMSO). The method, then: A non-radiometric kinase assay (ADP-Glo™ Assay, Promega, Madison, Wi, USA) was used for measuring the kinase activity of the PIK3C3 lipid kinase. All kinase assays were performed in 96-well half-area microtiter plates in a 25 μl reaction volume. The reaction cocktail was pipetted in 3 steps in the following order: • 10 μl of ATP solution (in assay buffer, see below) • 5 μl of test sample in 5% DMSO 10 μl of enzyme/substrate mixture
All lipid kinase assays contained 50 mM HEPES (4-(2-hydroxyethyl)-1-piperazineethanesulfonic acid)—NaOH, pH 7.5, 1 mM EGTA ((ethylene glycol tetraacetic acid), 100 mM NaCl, 0.03% CHAPS (3-[(3-Cholamidopropyl) dimethylammonio]-1-propanesulfonate), 2 mM DTT (Dithiothreitol), 20 μM ATP (corresponding to the apparent ATP-Km), kinase (7.6 nM) and substrate (50 μM). The assay for PIK3C3 additionally contained 3 mM MnCl2.
The reaction cocktails were incubated at 30° C. for 60 minutes. The reaction was stopped with 25 μl ADP-Glo™ reagent per well. Plates were incubated for 40 minutes at room temperature, followed by addition of 50 μl kinase detection reagent per well and incubation for 60 minutes at room temperature. Signal was determined with a microplate luminescence reader (Victor, Perkin Elmer). The assay was either performed using a single dose of compound (1 μM final concentration in the assay reaction) with resulting data expressed as residual activity compared to control (DMSO), or using a serial (half-log) dilution of compounds starting at 10 μM and down to 0.3 nM (final concentrations in the assay) with data expressed as the pIC50.
In general terms: In ADP-Glo the light output rises with the ADP produced.

The target in assay [3] is T2, EF2K (Homo sapiens, UniProt O00418).
T2 construct: host or cells: LN-229 glioblastoma cell lysate
T2 sequence (O00418 1-725): T1 sequence (O00418 1-725)
The assay can be described thus: Biochemical EF2K lysate-based kinase assay (AlphaLISA p-eEF2 Thr56). Particulars: LN-229 cell lysates, 10 mM ATP, pH 6.6; pIC50 = -log IC50 (M); read-out: eEF2K_C_alphalisa pIC50 (converted). An excerpt: LN-229 cells were purchased from ATCC (CRL-2611); these are glioblastoma cells. Cell lysates from LN229 were used in this kinase assay to provide both the kinase and the substrate (EF2). The AlphaLISA p-eEF2 (Thr56) detection assay was developed using a sandwich assay format with two specific antibodies recognizing different epitopes of the target, including one antibody against the phosphorylation site of interest. One anti-eEF2 antibody was conjugated onto AlphaLISA Acceptor beads, while the second antibody was biotinylated and captured by streptavidin coated Donor beads.
Compound was mixed with LN-229 cell lysates in the presence of a kinase buffer (e.g. HEPES) at a pH of 6.6, containing 10 mM Mg^2+ (e.g. magnesium acetate) and 10 mM adenosine-tri-phosphate (ATP) and incubated at room temperature for 15 minutes. The kinase reaction was stopped with excess ethylenediaminetetraacetic acid disodium salt and the biotinylated-anti phospho eEF2 antibody (3 nM) was added for 1 hour. Then the anti-EF2 acceptor beads (10 μg/ml) as well as the streptavidin coated donor beads (20 μg/ml) were added for 1 hour, and the AlphaLISA signal was measured in an Envision instrument once, left overnight, and measured again for the final read.

Sequence of PIK3C3 lipid kinase (Q8NEB9 whole entry): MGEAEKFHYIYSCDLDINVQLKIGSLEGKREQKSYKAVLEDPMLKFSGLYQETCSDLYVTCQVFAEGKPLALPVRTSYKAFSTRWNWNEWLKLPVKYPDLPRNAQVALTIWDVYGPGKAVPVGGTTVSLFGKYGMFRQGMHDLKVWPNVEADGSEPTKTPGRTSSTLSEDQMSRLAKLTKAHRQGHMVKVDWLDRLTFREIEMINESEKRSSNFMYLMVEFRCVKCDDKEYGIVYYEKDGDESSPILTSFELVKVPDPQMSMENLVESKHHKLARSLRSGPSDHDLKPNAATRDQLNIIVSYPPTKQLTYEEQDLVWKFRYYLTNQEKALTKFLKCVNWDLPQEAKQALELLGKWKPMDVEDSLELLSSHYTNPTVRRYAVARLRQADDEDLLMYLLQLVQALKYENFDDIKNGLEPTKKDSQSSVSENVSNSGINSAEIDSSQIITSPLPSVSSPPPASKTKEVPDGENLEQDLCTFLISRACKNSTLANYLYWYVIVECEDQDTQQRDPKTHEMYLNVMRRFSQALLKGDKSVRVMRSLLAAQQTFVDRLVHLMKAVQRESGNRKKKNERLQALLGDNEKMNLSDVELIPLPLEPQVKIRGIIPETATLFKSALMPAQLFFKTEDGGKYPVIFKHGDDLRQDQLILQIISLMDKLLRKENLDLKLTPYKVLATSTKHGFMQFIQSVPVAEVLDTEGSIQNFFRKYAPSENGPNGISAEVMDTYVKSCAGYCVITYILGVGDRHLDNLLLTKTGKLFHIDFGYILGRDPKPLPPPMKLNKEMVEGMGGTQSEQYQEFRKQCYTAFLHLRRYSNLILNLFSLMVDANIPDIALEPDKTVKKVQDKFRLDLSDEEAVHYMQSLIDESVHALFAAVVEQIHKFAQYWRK

`CC1CN2CCN1Cc1cccc(c1)Nc1cc(ccn1)-c1cnc(nc1)N1CC(O)CC1CCNC(=O)C2` (stereo not drawn) [Compound 59]: the figures for the IC50 in assay [1], in assay [2] and in assay [3] were 8.51e-07 M, 4.17e-07 M and 3.47e-08 M, respectively.

As for `CC1CN2CCN1Cc1cccc(c1)Nc1cc(ccn1)-c1cnc(nc1)N1CCCC1CCNC(=O)C2` (stereo not drawn) [Compound 47], the figures for the IC50 in assay [1], in assay [2] and in assay [3] were 4.17e-07 M, 9.12e-06 M and 8.51e-09 M, respectively.

Turning to `CC1CN2CCN1Cc1cccc(c1)Nc1cc(ccn1)-c1cnc(nc1)N1CC(O)CC1CCNC(=O)C2` (stereo not drawn) [Compound 60], the IC50 in assay [1] is 4.79e-06 M; in assay [3], 6.61e-08 M. The remaining activity at 1 µM in assay [2] amounted to 86.8%.

Turning to `O=C1CC2CCNC(=O)CN3CCN(CC3)Cc3cccc(c3)Nc3cc(ccn3)-c3cnc(nc3)N2C1` (stereo not drawn) [Compound 88], the IC50 in assay [1] was 4.57e-07 M; in assay [3], 6.46e-08 M. Besides, in assay [2], the remaining activity at 1 µM turned out to be 66.5%.

For `O=C1CN2CCN(CC2)C2(CC2)c2cccc(c2)Nc2cc(ccn2)-c2cnc(nc2)NCCCN1` [Compound 73], the IC50 was > 1e-05 M in assay [1], > 1e-05 M in assay [2] and 5.25e-06 M in assay [3].

Regarding `N#CC1CC2CCNC(=O)CN3CCN(CC3)Cc3cccc(c3)Nc3cc(ccn3)-c3cnc(nc3)N2C1` (stereo not drawn) [Compound 78], the IC50 is 2.24e-06 M in assay [1] and 3.72e-08 M in assay [3]. Further, in assay [2], the VPS34_1microM_%ofcntrl is given as 43.17%.

With `O=C1CN2CCN(CC2)Cc2cccc(c2)Nc2cc(ccn2)-c2ccc(nn2)NCCCN1` [Compound 37], the figures for the IC50 in assay [1] and in assay [3] were > 3.02e-05 M and ~2.45e-05 M, respectively. The remaining activity at 1 µM in assay [2] stood at 84.5%.

As to `CC1(C)CN2CCN1CC(=O)NCCCNc1ncc(cn1)-c1ccnc(c1)Nc1cccc(c1)C2` [Compound 18], the IC50 was 1.05e-06 M in assay [1], 1.74e-07 M in assay [2] and 8.71e-08 M in assay [3]. In assay [2], the remaining activity at 1 µM turned out to be 8.79%.

Take `O=C1NCCC2CC(O)CN2c2ncc(cn2)-c2ccnc(c2)Nc2cccc(c2F)CN2CCN(CC2)C12CC2` (stereo not drawn) [Compound 53]: the IC50 in assay [1] was 8.51e-08 M; in assay [2], 1.78e-07 M; in assay [3], 4.07e-09 M.

`O=C1CN2CCN(CC2)Cc2cccc(c2)Nc2cc(ccn2)-c2cnc(nc2)NCCS(=O)(=O)N1` [Compound 126]: the IC50 in assay [1] is > 3.02e-05 M; in assay [3], 2.82e-07 M. Also, in assay [2], the remaining activity at 1 µM is 52.7%.

As to `O=C1CN2CCN(Cc3cccc(c3)Nc3cc(ccn3)-c3cnc(nc3)N3CCCC3CCN1)C(CO)C2` (stereo not drawn) [Compound 46], the IC50 was 6.46e-07 M in assay [1], 2.34e-06 M in assay [2] and 1.32e-08 M in assay [3].

On to `O=C1CN2CCN(Cc3cccc(c3)Nc3cc(ccn3)-c3cnc(nc3)NCCCN1)C1(CC1)C2` [Compound 27], for which the figures for the IC50 in assay [1], in assay [2] and in assay [3] were ~1.23e-06 M, 2.57e-08 M and 1.07e-08 M, respectively.

On to `O=C1CN2CCN(CC2)Cc2cccc(c2)Nc2cc(ccn2)-c2ccc(nc2)CN(CC2CC2)CCN1` [Compound 146], for which the IC50 was 6.61e-07 M in assay [1] and 3.89e-08 M in assay [3]. In assay [2], the remaining activity at 1 µM turned out to be 54.6%.

Take `O=C1CN2CCN(CC2)Cc2cccc(c2)Nc2cc(ccn2)-c2cnc(cn2)NCCCN1` [Compound 39]: the results for the IC50 in assay [1] and in assay [3] were 1.23e-05 M and 2.75e-07 M, respectively. Moreover, the remaining activity at 1 µM in assay [2] stood at 45.7%.

For `CC1CN2CCN1Cc1cccc(c1)Nc1cc(ccn1)-c1cnc(nc1)N1CCCC1CCNC(=O)C2` (stereo not drawn) [Compound 48], the IC50 in assay [1] was 3.16e-06 M; in assay [3], 7.94e-08 M. The remaining activity at 1 µM in assay [2] is 44.1%.

Regarding `O=C1CN2CCC(CC2)Oc2cccc(c2)Nc2cc(ccn2)-c2cnc(nc2)NCCCN1` [Compound 90], the IC50 in assay [1] is 5.25e-07 M; in assay [2], 6.17e-08 M; in assay [3], 1.91e-08 M.

As to `NS(=O)(=O)NC1CC2CCNC(=O)CN3CCN(CC3)Cc3cccc(c3)Nc3cc(ccn3)-c3cnc(nc3)N2C1` (stereo not drawn) [Compound 86], the IC50 in assay [1] is > 1e-05 M; in assay [3], 3.39e-07 M. Further, the remaining activity at 1 µM in assay [2] came to 68%.

In the case of `CC1CN2CC(=O)NCCCNc3ncc(cn3)-c3ccnc(c3)Nc3cccc(c3)CN1C(C)C2` (stereo not drawn) [Compound 34], the IC50 was ~2.63e-06 M in assay [1], 3.63e-07 M in assay [2] and 3.31e-07 M in assay [3]. Also, the remaining activity at 1 µM in assay [2] was found to be 23.5%.

For the molecule `C=CCN1CCNC(=O)CN2CCN(CC2)Cc2cccc(c2)Nc2cc(ccn2)-c2cnc(nc2)C1` [Compound 130], the figures for the IC50 in assay [1] and in assay [3] were 1.58e-06 M and 1e-06 M, respectively. Further, in assay [2], the remaining activity at 1 µM stood at 57%.

As to `CC1CN2CCN1Cc1cccc(c1)Nc1cc(ccn1)-c1cnc(nc1)N1CC(O)CC1CCNC(=O)C2` (stereo not drawn) [Compound 61], the IC50 in assay [1] is 4.27e-07 M; in assay [3], 1.26e-08 M. Also, the VPS34_1microM_%ofcntrl in assay [2] is recorded as 80.70%.

On to `CN1CCCN(CCCO)c2ncc(cn2)-c2ccnc(c2)Nc2cccc(c2)CN2CCN(CC2)CC1=O` [Compound 16], for which the IC50 in assay [1] and in assay [3] was > 3.02e-05 M each time. The remaining activity at 1 µM in assay [2] was determined as 46.1%.

On to `O=C1CN2CC3CCC2CN3Cc2cccc(c2)Nc2cc(ccn2)-c2cnc(nc2)NCCCN1` (single isomer, unassigned) [Compound 26], for which the “eEF2K_C_PThr56 pIC50” value in assay [1] is reported as <5. In assay [2], the remaining activity at 1 µM was determined as 4.67% and the IC50 was 6.61e-08 M. The IC50 in assay [3] was 1.07e-06 M.

As to `O=C1CN2CCN(CC2)Cc2cccc(c2)Nc2cc(ccn2)-c2cnc(nc2)CN(CC2CC2)CCN1` [Compound 128], the IC50 in assay [1] is 4.17e-07 M; in assay [3] it was 2.88e-07 M. Besides, the remaining activity at 1 µM in assay [2] stood at 74.5%.

For `N#CC1CC2CCNC(=O)CN3CCN(CC3)Cc3cccc(c3)Nc3cc(ccn3)-c3cnc(nc3)N2C1` (stereo not drawn) [Compound 77], the figures for the IC50 in assay [1] and in assay [3] were 3.8e-06 M and 4.27e-08 M, respectively. The VPS34_1microM_%ofcntrl in assay [2] is recorded as 86.17%.

For the molecule `CN1CCCN(C)c2ccc(cn2)-c2ccnc(c2)Nc2cccc(c2)CN2CCN(CC2)CC1=O` [Compound 68], the IC50 in assay [1] is > 3.02e-05 M; in assay [2], 4.68e-06 M; in assay [3], 5.13e-07 M.
